Literature values in publication PMC5957517 (Biochimica et biophysica acta, 2018).

Tested on: MRSA infections
Settings: ref [43],[44]

## CN[C@H](CC(C)C)C(=O)N[C@H]1C(=O)N[C@@H](CC(N)=O)C(=O)N[C@H]2C(=O)N[C@H]3C(=O)N[C@H](C(=O)N[C@H](C(=O)O)c4cc(O)cc(O)c4-c4cc3ccc4O)[C@H](O)c3ccc(c(Cl)c3)Oc3cc2cc(c3O[C@@H]2O[C@H](CO)[C@@H](O)[C@H](O)[C@H]2O[C@H]2C[C@](C)(N)[C@H](O)[C@H](C)O2)Oc2ccc(cc2Cl)[C@H]1O [vancomycin]
  reported clinical efficacy: 35-57%
